According to US20130289071A1, “TETRAZOLYL-TETRAHYDROPYRIDINE COMPOUNDS FOR INFLAMMATION AND IMMUNE-RELATED USES” (Synta Pharmaceuticals Corp., priority 2010, published 2013):
Blank lines part the entries; values can stand above or below the compound they belong to.

Legend:
[1] = biological target: T1, CRAC ion channels (ICRAC current), RBL-2H3 cells (Rattus norvegicus, UniProt Q5M848); experiment: Automated patch clamp (Qpatch) inhibition of ICRAC current in RBL-2H3 cells; type: cell-based; conditions: 100 nM compound, % ICRAC inhibition
T1 construct: endogenous in cells; host or cells: RBL-2H3 (rat basophilic leukemia) cells
T1 sequence (Q5M848 whole entry): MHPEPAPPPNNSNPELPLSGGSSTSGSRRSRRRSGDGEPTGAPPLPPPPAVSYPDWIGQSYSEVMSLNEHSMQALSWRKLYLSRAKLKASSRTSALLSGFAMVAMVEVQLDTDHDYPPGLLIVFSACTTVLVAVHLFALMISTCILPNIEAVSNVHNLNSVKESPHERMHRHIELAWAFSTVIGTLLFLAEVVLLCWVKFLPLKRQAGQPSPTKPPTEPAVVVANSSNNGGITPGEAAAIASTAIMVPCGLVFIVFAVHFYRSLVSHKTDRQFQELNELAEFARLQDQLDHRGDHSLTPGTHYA
Procedure: Automated patch clamp experiments are conducted with the QPatch 16 (Sophion Bioscience, Ballerup, Denmark) at room temperature (21-25° C.). Immediately following the establishment of giga-seal whole-cell configuration, the cells membrane potential is clamped at 0 mV. Voltage ramps of 50 ms duration spanning the voltage range of −100 to +100 mV are then stimulated at a rate of 0.33 Hz. Currents are filtered at 2.9 kHz and digitized at 200 μs intervals. Capacitive currents and series resistance are determined and corrected before each voltage ramp using the automatic capacitance compensation.
RBL-2H3 are grown in DMEM media supplemented with 10% fetal bovine serum, penicillin 100 U/ml and streptomycin […] in an atmosphere of 95% air/5% CO2. Cells are grown to confluence in 175 cm^2 tissue culture flask. On the experimental day, cells harvested with 0.25% trypsin/0.02% EDTA and resuspended in extracellular solution at density of 5×10^6 cells/ml.
The intracellular solution contains Cs-Glutamate 90 mM; NaCl 8 mM; MgCl2 3 mM; CsCl 20 mM; CsBAPTA 20 mM; HEPES 10 mM; InsP3 0.02 mM; pH=7.2 adjusted with CsOH.
The extracellular solution contains NMDGCl 120 mM; KCl 5.4 mM; CsCl 10 mM; CaCl2 10 mM; MgCl2 1 mM; HEPES 10 mM; Glucose 5.5 mM; at pH=7.4 adjusted with HCl.
ICRAC currents are measured using 50 msec voltage ramps between −100 mV to +100 mV. The voltage ramps are stimulated every 3 seconds for at least 570 seconds. The maximum ICRAC current is allowed to develop for at least 135 seconds. Compounds diluted in extracellular solutions are then applied twice, 30 seconds apart. After incubating the cells with compound for 435 seconds, a reference solution is applied at the end of the experiment. The reference solution is a Ca^2+ free extracellular solution.
Off-line analysis with the Qpatch software is used to plot the current value at −80 mV for each ramp trace against time. The resulting current versus time data is then exported into a Microsoft Excel spreadsheet. The ICRAC membrane currents are separated from the cells basal background currents by either subtracting out the average membrane current values during the first 1-3 traces, or the average membrane current values obtained with the reference solution at the end of the experiment. The % ICRAC inhibition in each cell is calculated by comparing the amount of current just prior to the first compound addition to the amount of current after the cells has been perfused with the compound for at least 400 seconds.

IL-2 production = experiment: Inhibition of IL-2 production (Jurkat/PHA/1% FBS, ELISA); type: cell-based; conditions: Jurkat cells, PHA 2.5 μg/mL
Procedure: JurkaT-cells were placed in a 96 well plate (0.5 million cells per well in 1% FBS medium), and then a test compound of this invention was added at different concentrations. After 10 minutes, the cells were activated with PHA (final concentration 2.5 μg/mL) and incubated for 20 hours at 37° C. under 5% CO2. The final volume was 200 μL. Following incubation, the cells were centrifuged, and the supernatants collected and stored at −70° C. prior to assaying for IL-2 production. A commercial ELISA kit (IL-2 Eli-pair, Diaclone Research, Besancon, France) was used to detect production of IL-2, from which dose response curves were obtained. The IC50 value was calculated as the concentration at which 50% of maximum IL-2 production after stimulation was inhibited versus a non-stimulation control.

IC50 (IL-2 production; Homo sapiens, Jurkat, 20 h): 14 nM
Compound: CCC1=C(c2ccc(NC(=O)c3cccc(F)c3F)cc2)CN(c2nnn(C)n2)CC1 [Compound 7]

IC50 (IL-2 production; Homo sapiens, Jurkat, 20 h): 26 nM
Compound: CC1=C(c2ccc(NC(=O)c3cccc(F)c3F)cc2)CN(c2nnn(C(F)F)n2)CC1 [Compound 21]

IC50 (IL-2 production; Homo sapiens, Jurkat, 20 h): 47 nM
Compound: CCn1nnc(N2CCC(C)=C(c3ccc(NC(=O)c4cccc(F)c4F)cc3)C2)n1 [Compound 34]

IC50 (IL-2 production; Homo sapiens, Jurkat, 20 h): 12 nM
Compound: CCC1=C(c2ccc(NC(=O)c3cccc(F)c3F)cc2)CN(c2nnn(CF)n2)CC1 [Compound 3]

IC50 (IL-2 production; Homo sapiens, Jurkat, 20 h): 698 nM
Compound: CCn1nnc(N2CCC(C)=C(c3ccc(NC(=O)c4cncnc4C)cc3)C2)n1 [Compound 74]

inhibition at 0.1 µM [1]: 69%
Compound: CC1=C(c2ccc(NC(=O)c3cccc(F)c3Cl)cc2)CN(c2nnn(C)n2)CC1 [Compound 16]

IC50 (IL-2 production; Homo sapiens, Jurkat, 20 h): 289 nM
Compound: CCn1nnc(N2CCC(C)=C(c3ccc(NC(=O)c4cc(C)ncc4C)cc3)C2)n1 [Compound 70]

IC50 (IL-2 production; Homo sapiens, Jurkat, 20 h): 124 nM
Compound: CC1=C(c2ccc(NC(=O)c3cccc(Cl)c3Cl)cc2)CN(c2nnn(C)n2)CC1 [Compound 62]

IC50 (IL-2 production; Homo sapiens, Jurkat, 20 h): 33 nM
Compound: CCC1=C(c2ccc(NC(=O)c3cccc(F)c3F)cc2)CN(c2nnn(CC)n2)CC1 [Compound 24]

IC50 (IL-2 production; Homo sapiens, Jurkat, 20 h): 312 nM
Compound: CC1=C(c2ccc(NC(=O)c3cccc(F)c3F)cc2)CN(c2nnn(CC(C)C)n2)CC1 [Compound 71]

IC50 (IL-2 production; Homo sapiens, Jurkat, 20 h): 11 nM
Compound: CC1=C(c2ccc(NC(=O)c3cccc(F)c3F)cc2)CN(c2nnn(CF)n2)CC1 [Compound 2]

IC50 (IL-2 production; Homo sapiens, Jurkat, 20 h): 10 nM
Compound: [2H]C([2H])([2H])n1nnc(N2CCC(C)=C(c3ccc(NC(=O)c4cccc(F)c4F)cc3)C2)n1 [Compound 1]

IC50 (IL-2 production; 20 hours): 22 nM
Compound: CC1=C(c2ccc(NC(=O)c3cccc(F)c3F)cc2)CN(c2nnn(C)n2)CC1 [Compound 19]

IC50 (IL-2 production; Homo sapiens, Jurkat, 20 h): 56 nM
Compound: CC1=C(c2ccc(NC(=O)c3c(F)cccc3F)cc2)CN(c2nnn(C(C)C)n2)CC1 [Compound 44]

IC50 (IL-2 production; Homo sapiens, Jurkat, 20 h): 77 nM
Compound: CCCn1nnc(N2CCC(C)=C(c3ccc(NC(=O)c4cccc(F)c4F)cc3)C2)n1 [Compound 52]

IC50 (IL-2 production; Homo sapiens, Jurkat, 20 h): 96 nM
Compound: CCn1nnc(N2CCC(C)=C(c3ccc(NC(=O)c4cnccc4C)cc3)C2)n1 [Compound 55]

IC50 (IL-2 production; Homo sapiens, Jurkat, 20 h): 105 nM
Compound: CCc1c(F)cncc1C(=O)Nc1ccc(C2=C(C)CCN(c3nnn(CC)n3)C2)cc1 [Compound 59]

Further lines, the compound ahead of its results:

Compound: CC1=C(c2cnc(NC(=O)c3cc(F)ccc3Cl)cn2)CN(c2nnn(C)n2)CC1 [Compound 56]
inhibition at 0.1 µM [1]: 84% | IC50 (IL-2 production; Homo sapiens, Jurkat, 20 h): 99 nM

Compound: Cc1ccncc1C(=O)Nc1ccc(C2=C(Cl)CCN(c3nnn(C)n3)C2)cc1 [Compound 45]
inhibition at 0.1 µM [1]: 60% | IC50 (IL-2 production; Homo sapiens, Jurkat, 20 h): 59 nM

Compound: Cc1ccncc1C(=O)Nc1ccc(C2=C(Cl)CCN(c3nnn(C)n3)C2)cn1 [Compound 67]
IC50 (IL-2 production; Homo sapiens, Jurkat, 20 h): 150 nM

Compound: CC1=C(c2ccc(NC(=O)c3ccccc3Cl)nc2)CN(c2nnn(C)n2)CC1 [Compound 51]
IC50 (IL-2 production; Homo sapiens, Jurkat, 20 h): 75 nM

Compound: Cn1nnc(N2CCC(Cl)=C(c3ccc(NC(=O)c4ccncc4Cl)cc3)C2)n1 [Compound 43]
IC50 (IL-2 production; Homo sapiens, Jurkat, 20 h): 56 nM

Compound: Cn1nnc(N2CCC(Cl)=C(c3ccc(NC(=O)c4c(F)cccc4F)nc3)C2)n1 [Compound 4]
IC50 (IL-2 production; Homo sapiens, Jurkat, 20 h): 12 nM

Compound: COc1ccc(F)cc1C(=O)Nc1ccc(C2=C(C)CCN(c3nnn(C)n3)C2)cc1 [Compound 76]
IC50 (IL-2 production; Homo sapiens, Jurkat, 20 h): 1000 nM

Compound: COc1cccc(F)c1C(=O)Nc1ccc(C2=C(C)CCN(c3nnn(C)n3)C2)cc1 [Compound 68]
IC50 (IL-2 production; Homo sapiens, Jurkat, 20 h): 163 nM

Compound: CC1=C(c2ccc(NC(=O)c3cc(F)ccc3Cl)cc2)CN(c2nnn(C)n2)CC1 [Compound 53]
IC50 (IL-2 production; Homo sapiens, Jurkat, 20 h): 85 nM

Compound: CC1=C(c2ccc(NC(=O)c3cncc(F)c3C)cc2)CN(c2nnn(C)n2)CC1 [Compound 6]
IC50 (IL-2 production; Homo sapiens, Jurkat, 20 h): 13 nM

Compound: CC1=C(c2cnc(C(=O)Nc3c(F)cccc3F)cn2)CN(c2nnn(C)n2)CC1 [Compound 50]
IC50 (IL-2 production; Homo sapiens, Jurkat, 20 h): 74 nM

Compound: CC(C)C1=C(c2ccc(NC(=O)c3ccc(F)cc3F)nc2)CN(c2nnn(C)n2)CC1 [Compound 64]
IC50 (IL-2 production; Homo sapiens, Jurkat, 20 h): 126 nM

Compound: Cn1nnc(N2CCC(Cl)=C(c3ccc(NC(=O)c4c(F)cccc4F)cc3)C2)n1 [Compound 18]
inhibition at 0.1 µM [1]: 74%

Compound: CC1=C(c2cnc(NC(=O)c3cnccc3C)cn2)CN(c2nnn(C)n2)CC1 [Compound 72]
IC50 (IL-2 production; Homo sapiens, Jurkat, 20 h): 335 nM

Compound: CC1=C(c2ccc(NC(=O)c3c(F)cccc3F)nc2)CN(c2nnn(C)n2)CC1 [Compound 8]
IC50 (IL-2 production; Homo sapiens, Jurkat, 20 h): 15 nM

Compound: CC1=C(c2cnc(NC(=O)c3c(F)cccc3F)cn2)CN(c2nnn(C)n2)CC1 [Compound 32]
IC50 (IL-2 production; Homo sapiens, Jurkat, 20 h): 46 nM

Compound: CC1=C(c2cnc(NC(=O)c3cc(F)cc(F)c3)cn2)CN(c2nnn(C)n2)CC1 [Compound 75]
IC50 (IL-2 production; Homo sapiens, Jurkat, 20 h): 803 nM

Compound: CC1=C(c2ccc(NC(=O)c3c(C)cccc3Cl)cc2)CN(c2nnn(C)n2)CC1 [Compound 31]
inhibition at 0.1 µM [1]: 72%

Compound: CC1=C(c2ccc(C(=O)Nc3c(F)cccc3F)cn2)CN(c2nnn(C)n2)CC1 [Compound 65]
IC50 (IL-2 production; Homo sapiens, Jurkat, 20 h): 127 nM

Compound: CCC1=C(c2cnc(NC(=O)c3ccc(F)cc3F)cn2)CN(c2nnn(C)n2)CC1 [Compound 49]
IC50 (IL-2 production; Homo sapiens, Jurkat, 20 h): 67 nM

Compound: CC1=C(c2ccc(NC(=O)c3ccccc3F)nc2)CN(c2nnn(C)n2)CC1 [Compound 42]
IC50 (IL-2 production; Homo sapiens, Jurkat, 20 h): 55 nM

Compound: CC1=C(c2ccc(NC(=O)c3cccc(F)c3C)nc2)CN(c2nnn(C)n2)CC1 [Compound 20]
inhibition at 0.1 µM [1]: 65%

Compound: CC1=C(c2ccc(NC(=O)c3c(F)cccc3Cl)nc2)CN(c2nnn(C)n2)CC1 [Compound 13]
IC50 (IL-2 production; Homo sapiens, Jurkat, 20 h): 17 nM

Compound: CC(C)C1=C(c2cnc(NC(=O)c3c(F)cccc3F)cn2)CN(c2nnn(C)n2)CC1 [Compound 35]
IC50 (IL-2 production; Homo sapiens, Jurkat, 20 h): 49 nM

Compound: Cn1nnc(N2CCC(Cl)=C(c3ccc(NC(=O)c4ccncc4F)cc3)C2)n1 [Compound 28]
IC50 (IL-2 production; Homo sapiens, Jurkat, 20 h): 39 nM

Compound: CCn1nnc(N2CCC(C)=C(c3cnc(NC(=O)c4c(F)cccc4Cl)cn3)C2)n1 [Compound 23]
inhibition at 0.1 µM [1]: 81%

Compound: CC1=C(c2ccc(NC(=O)c3ccncc3Cl)cc2)CN(c2nnn(C)n2)CC1 [Compound 15]
inhibition at 0.1 µM [1]: 53%

Compound: COc1cc(C)c(C(=O)Nc2ccc(C3=C(C)CCN(c4nnn(C)n4)C3)cc2)cn1 [Compound 48]
IC50 (IL-2 production; Homo sapiens, Jurkat, 20 h): 62 nM

Compound: CC1=C(c2ccc(NC(=O)c3cnc(C)cc3C)cc2)CN(c2nnn(C)n2)CC1 [Compound 69]
IC50 (IL-2 production; Homo sapiens, Jurkat, 20 h): 219 nM

Compound: CC1=C(c2cnc(NC(=O)c3ccc(F)cc3F)cn2)CN(c2nnn(C)n2)CC1 [Compound 58]
IC50 (IL-2 production; Homo sapiens, Jurkat, 20 h): 104 nM

Compound: CC1=C(c2cnc(NC(=O)c3cncc(F)c3C)cn2)CN(c2nnn(C)n2)CC1 [Compound 66]
IC50 (IL-2 production; Homo sapiens, Jurkat, 20 h): 147 nM

Compound: CC1=C(c2ccc(NC(=O)c3c(Cl)cncc3Cl)cc2)CN(c2nnn(C)n2)CC1 [Compound 57]
IC50 (IL-2 production; Homo sapiens, Jurkat, 20 h): 100 nM

Compound: CC1=C(c2cnc(NC(=O)c3c(F)cccc3Cl)cn2)CN(c2nnn(C)n2)CC1 [Compound 5]
IC50 (IL-2 production; Homo sapiens, Jurkat, 20 h): 13 nM

Compound: CC1=C(c2cnc(NC(=O)c3ccncc3Cl)cn2)CN(c2nnn(C)n2)CC1 [Compound 73]
IC50 (IL-2 production; Homo sapiens, Jurkat, 20 h): 423 nM

Compound: Cn1nnc(N2CCC(Cl)=C(c3cnc(NC(=O)c4cc(F)ccc4Cl)cn3)C2)n1 [Compound 36]
inhibition at 0.1 µM [1]: 88%

Compound: CC1=C(c2ccc(NC(=O)c3ncncc3C)cc2)CN(c2nnn(C)n2)CC1 [Compound 63]
IC50 (IL-2 production; Homo sapiens, Jurkat, 20 h): 124 nM

Compound: CC1=C(c2ccc(NC(=O)c3cccnc3C)cc2)CN(c2nnn(C)n2)CC1 [Compound 60]
IC50 (IL-2 production; Homo sapiens, Jurkat, 20 h): 114 nM

Compound: CC1=C(c2ccc(NC(=O)c3cc(F)ccc3C)nc2)CN(c2nnn(C)n2)CC1 [Compound 29]
inhibition at 0.1 µM [1]: 85%
